This passage reports IC50 results from patent US7504537B2, “Hydroxamic acid derivative and MMP inhibitor containing the same as active ingredient” (Dainippon Sumitomo Pharma Co., Ltd., priority 2001, dated 2009).

SMILES strings stand for the structures.

Type in all cases: biochemical
One assay concerns the target T1, MMP-13 (Homo sapiens, UniProt P45452).
T1 construct: a fragment of 767 bp encoding original 84 amino acids of complete MMP-13 and encoding 164 amino acids; made in house; host or cells: E. coli BL21 (DE3), pET11a
Description: Test 2 Test on MMP-13 inhibition activity (fluorogenic peptide substrate). The conditions noted are these: activated MMP-13, 37° C. The text has this: Test 2 Test on MMP-13 Inhibition Activity
In order to subcloning C-terminal truncated cDNA in which the cDNA encodes procollagenase-3 (proMMP-13) (J. Biol. Chem., 269(24), 16766-16773 (1994)), two synthesized oligonucleotide primer fragments: • (5′-[…]-3′ and 5′-[…]-3′: In former the sequence for specific NdeI site (under line) including first methionine is included, and in latter terminal codon and BamHI site (under lined) are included.) were used with human cartilage cell cDNA library for PCR. Due to these primers and Pfu DNA polymelase (STRATAGENE) for PCR, there was obtained a fragment of 767 bp encoding original 84 amino acids of complete MMP-13 and encoding 164 amino acids. The said fragment was cut out with digestion by NdeI and BamHI, and the fragment was annealed to NdeI site and BamHI site of pET11a (STRATAGENE). The recombinant plasmid was transformed into E. coli BL21 (DE3) and the bacteria were cultivated. The crude cell extract was prepared according to the method of Biochemistry. The said extract was dialyzed with 20 mM Tris-HCl (pH 7.2)/5 mM CaCl2/0.02% NaN3 solution, treated with SP-sepharose HP column (1.6×10 cm, Amasham-Pharmacia biotec), and the eluting was carried out by liner gradient from 0 to 0.3 m of sodium chloride solution (50 ml) (partially purified proMMP-13 was eluted at about 0.2M.) The eluted fraction was dialyzed with 20 mM Tris-HCl (pH 7.9)/5 mM CaCl2/200 mM (NH4)2SO4/0.02% NaN3 solution, treated with phenylsepharose HP column (1.6×5 cm, Amersham-Pharmacia biotec), and the eluting was carried out by liner gradient from 0.2M to 0M sulfuric acid ammonium solution (purified proMMP-13 was eluted at about 50 mM.). The eluted fraction was concentrated by YM-5 ultrafilter membrane, and activated by 4-aminophenyl mercuric acetate. Activated MMP-13 was treated with gel filtration chromatography in accordance with the method of Biochemistry to be separated from propeptide. Inhibiting Test Method
Enzyme activity test was carried out by the method of G. Knight (FEBS Lett., 296(3), 263-266 (1992)).
A mixture of activated MMP-13 (20 nM, 10 μl), buffer solution (70 μl, pH 7.5 solution containing 100 mM Tris-HCl solution, 10 mM calcium chloride solution, 100 mM sodium chloride solution and 0.05% Briji-35 solution), MOCAc-Pro-Leu-Gly-Leu-A2pr(DNP)-Ala-Arg-NH2 in 0.1% DMSO solution (100 μM, 10 μl) and a test compound in DMSO solution was incubated for 1.5 hours at 37° C. The mixture was put on a 96 well-plate (100 μl/wel), and the plate was incubated at 37° C. The enzyme activity in the presence of the compound was measured based on fluorescence intensity (λex 320 nm, λem 405 nm), and IC50 was calculated.

In another assay the target is T2, MMP-3 (Homo sapiens, UniProt P08254).
T2 construct: C-terminal truncated cDNA in which the cDNA encodes human prostromelysin; made in house; host or cells: E. coli
T2 sequence (P08254 100-272 limits assumed): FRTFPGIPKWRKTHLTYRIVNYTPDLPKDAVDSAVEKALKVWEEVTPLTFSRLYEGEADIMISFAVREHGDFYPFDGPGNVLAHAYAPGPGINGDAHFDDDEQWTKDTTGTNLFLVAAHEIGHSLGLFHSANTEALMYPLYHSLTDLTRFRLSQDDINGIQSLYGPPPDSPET
Nature of the assay: Test 1 Test on MMP-3 inhibiting activity (fluorogenic peptide substrate). The conditions noted are these: activated MMP-3, 37° C.; read-out: MMP-3 inhibition activity value. As for the experimental part: Test 1 Test on MMP-3 Inhibiting Activity
C-terminal truncated cDNA in which the cDNA encodes human prostromelysin, was subcloned (proMMP-3, cDNA sequence in Nature, 348, 699-704 (1990)), was expressed in E. coli and then, the expressed protein was purified in accordance with the method described in Biochemistry 30, 6476-6483 (1991). proMMP-3 activation was carried out by treating with 1 mM 4-aminophenyl mercuric acetate for 60 minutes at 37° C.
Enzyme activity test was conducted by the method of C. G. Knight (FEBS Lett., 296(3), 263-266 (1992)).
A mixture of activated MMP-3 (20 nM, 10 μl), buffer solution (70 μl, pH 7.5 solution containing 100 mM Tris-HCl solution, 10 mM calcium chloride solution, 100 mM sodium chloride solution and 0.05% Brij-35 solution), MOCAc-Pro-Leu-Gly-Leu-A2pr(DNP)-Ala-Arg-NH2 in 0.1% DMSO solution (100 μM, 10 μl) and a test compound in DMSO solution was incubated for 1.5 hours at 37° C. The mixture was put on a 96 well-plate (100 μl/well) and the plate was cultured at 37° C. The enzyme activity in the presence of the compound was measured based on fluorescence intensity (λex 320 nm, λem 405 nm), and IC50 was calculated.

The next assay deals with MMP-9 (Homo sapiens, UniProt P14780). Description: Test 4 MMP-9 inhibiting activity test (biotin labeled gelatin). To be noted: activated human MMP-9, biotin labeled gelatin; read-out: MMP-9 inhibition activity value. As for the experimental part: Test 4 MMP-9 Inhibiting Activity Test
Chain of MMP-9 (P14780 107-707 limits assumed): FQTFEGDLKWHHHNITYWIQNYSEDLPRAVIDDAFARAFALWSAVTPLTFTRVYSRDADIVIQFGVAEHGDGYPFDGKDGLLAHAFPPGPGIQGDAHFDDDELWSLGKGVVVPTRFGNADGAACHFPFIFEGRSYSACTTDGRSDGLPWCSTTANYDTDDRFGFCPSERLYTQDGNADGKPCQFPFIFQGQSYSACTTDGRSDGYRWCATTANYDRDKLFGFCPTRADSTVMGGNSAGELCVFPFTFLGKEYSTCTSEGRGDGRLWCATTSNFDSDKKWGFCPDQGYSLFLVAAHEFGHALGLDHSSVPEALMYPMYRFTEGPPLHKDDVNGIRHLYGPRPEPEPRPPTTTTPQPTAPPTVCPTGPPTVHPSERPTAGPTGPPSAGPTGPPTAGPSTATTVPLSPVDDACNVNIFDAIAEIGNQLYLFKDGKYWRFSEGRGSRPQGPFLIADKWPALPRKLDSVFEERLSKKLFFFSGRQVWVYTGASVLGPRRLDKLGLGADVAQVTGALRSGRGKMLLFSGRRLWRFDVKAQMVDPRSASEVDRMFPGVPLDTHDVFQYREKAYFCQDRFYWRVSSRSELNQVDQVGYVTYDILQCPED
A mixture of buffer solution (190 μl; pH 7.5 solution containing 50 mM Tris-HCl solution, 0.5 m sodium chloride solution and 5 mM calcium chloride solution), human MMP-9 (10 μl) and trypsin solution (20 μl; trypsin 3 mg in activated buffer (5 ml)) was incubated at 37° C. for 10 minutes. Thereto was added aprotinine solution (20 μl; aprotinine (3 mg) in buffer (5 ml)) and the mixture was incubated at 37° C. for 10 minutes, followed by addition of buffer (2 ml). The mixture was preserved under cooling with ice until use.
A mixture of DMSO solution (2 μl) containing definite concentration of the compound, biotin labeled gelatin (188 μl) and activated MMP-9 solution (10 μl) was put on a 96 well-assay plate (protein nonabsorbance type), well agitated, and incubated at 37° C. for 1 hour. This solution was transferred to Streptavidin-coating plate, and agitated at 15° C. to 30° C. for 30 minutes. And then the solution was washed with TTC buffer solution (200 μl) three times. Thereto was added Streptavidin-POD (200 μl) and the mixture was agitated at 15° C. to 25° C. for 60 minutes, followed by washing with TTC buffer (200 μl) three times. Then, ABTS solution (200 μl) was added thereto and after standing at room temperature for 40 minutes, furuorescence intensity was measured at 405 nm and IC50 was calculated.
In case of the above test, DMSO (2 μl) was used as a control instead of a sample solution. In the case of a blank, DMSO (2 μl) instead of the sample solution and the solution (10 μl) prepared in the same manner as preparation of […] but without adding 1.2 Uhuman MMP-9, instead of activated MMP-9 solution (10 μl), were used.

As for `CS(=O)(=O)c1ccc(Oc2ccc(S(=O)(=O)N(CC(=O)O)CC(=O)NO)cc2)cc1` [Example 24, N-{[(Hydroxyamino)carbonyl]methyl}-N-({4-[4-(methylsulfonyl)phenoxy]phenyl}sulfonyl)-glycine], the IC50 on MMP-13 was 16.3 nM; on MMP-3, 128 nM; on MMP-9 it was above 10000 nM.

With `CS(=O)(=O)c1ccc(Oc2ccc(S(=O)(=O)NCC(=O)NO)cc2)cc1` [Example 13, N′^1′-Hydroxy-N′^2′-({4-[4-(methylsulfonyl)phenoxy]phenyl}sulfonyl)glycinamide], the IC50 against MMP-13 was determined as 10.8 nM; at MMP-3 it was 13.5 nM; at MMP-9, 4700 nM.

Take `CC(C)CN(C1(C(=O)NO)CCOCC1)S(=O)(=O)c1ccc(Oc2ccc(S(C)(=O)=O)cc2)cc1` [Example 15, N-Hydroxy-4-[isobutyl({4-[4-(methylsulfonyl)phenoxy]phenyl}sulfonyl)amino]tetrahydro-2H-pyrane-4-carboxamide]: the figures for the IC50 against MMP-13, at MMP-3 and at MMP-9 were 24.6 nM, 5.2 nM and 700 nM, respectively.

Take `CC(C)(C(=O)NO)N(Cc1ccccc1)S(=O)(=O)c1ccc(Oc2ccc(S(C)(=O)=O)cc2)cc1` [Example 10, N′^2′-Benzyl-N′^1′-hydroxy-2-methyl-N′^2′-({4-[4-(methylsulfonyl)phenoxy]phenyl}sulfonyl)alaninamide]: the IC50 amounted to 34.4 nM against MMP-13, 85.8 nM at MMP-3 and 6800 nM at MMP-9.

In the case of `CCOC(=O)CCN(C1(C(=O)NO)CCOCC1)S(=O)(=O)c1ccc(Oc2ccc(S(C)(=O)=O)cc2)cc1` [Example 31, Ethyl N-{4-[(hydroxyamino)carbonyl]tetrahydro-2H-pyran-4-yl}-N-({4-[4-(methylsulfonyl)phenoxy]phenyl}sulfonyl)-β-alaninate], the IC50 on MMP-13 came out at 11.2 nM; at MMP-3, 59 nM; on MMP-9, 4900 nM.

Regarding `CC(C)CN(C1(C(=O)NO)CCC1)S(=O)(=O)c1ccc(Oc2ccc(S(C)(=O)=O)cc2)cc1` [Example 18, N-Hydroxy-1-[isobutyl({4-[4-(methylsulfonyl)phenoxy]phenyl}sulfonyl)amino]cyclobutanecarboxamide], the results for the IC50 against MMP-13, on MMP-3 and on MMP-9 were 3.1 nM, 29.9 nM and 500 nM, respectively.

In the case of `COCCN(CC(=O)NO)S(=O)(=O)c1ccc(Oc2ccc(S(C)(=O)=O)cc2)cc1` [Example 44, N^1-Hydroxy-N^2-(2-methoxyethyl)-N^2-({4-[4-(methylsulfonyl)phenoxy]phenyl}sulfonyl)glycinamide], the figures for the IC50 against MMP-13, at MMP-3 and at MMP-9 were 0.5 nM, 2.7 nM and above 10000 nM, respectively.
